The values that follow come from patent US20260317319A1, “NOVEL ERGOLINES AND METHODS OF TREATING MOOD DISORDERS” (Gilgamesh Pharma Inc., priority 2023, published 2026).

The test system of one series is C57BL/6 mice. Put plainly: Automated mouse head twitch response (HTR) assay (video tracking). It is filed as in vivo. The note with it: sc; for # HTR/20 min at Most Efficacious Dose: 20 min recording, at each compound's most efficacious dose (35*, 43*, 44*: suppressed below vehicle 14.5, dose is that of least suppression); for # HTR/20 min at Most Efficacious Dose / Peak HTR/min at Most Efficacious Dose: mean; for Most Efficacious Dose for Peak HTR/min: dose giving highest peak HTR/min (35*, 43*, 44*: dose that resulted in the least suppression); for Most Efficacious Dose for # HTR/20 min: dose giving most HTR/20 min (35*, 43*, 44*: dose that resulted in the least suppression); for Peak HTR/min at Most Efficacious Dose: rate over 2-min bins, at each compound's most efficacious dose (35*, 43*, 44*: suppressed below vehicle 1.62, dose is that of least suppression). The method, then:
Disclosed compounds were tested for their ability to induce a head twitch response (HTR) in mice using an automated video tracking procedure, with the results summarized in Table 8 and FIG. 4.
Animals. Adult male C57BL/6 mice aged 8-10 weeks (Jackson Labs, Bar Harbor, ME; body weight 18-25 g) were used in this experiment. Animals were group housed under environmentally controlled temperatures and 12-hour light/dark cycles (lights on between 06:00-18:00 h), with ad libitum food and water. Mice were habituated to the facility for at least 5 days prior to testing. All animal procedures were approved by the local IACUC and conducted in accordance with the NIH Guide for the Care and Use of Laboratory Animals.
Procedure. Mice were administered one dose of the drug and immediately placed into a small open field for behavioral observation. High-speed video of animals' behavior was captured continuously for 20 min. Video recordings were imported into an image processing software, which detects multiple points of interest on each animal's body, including the left and right ear. HTR events were defined as periodic deviations of ear locations from temporally averaged ear locations. Predefined thresholds for magnitude and frequency of location deviations were used to filter HTR events from random head movements. The method was validated by comparing detected events with manual (human) observations and found to have an accuracy >95%. The total number of HTR events counted during the 20-min recording and the rate in HTR/min calculated over 2-min bins were determined for each animal at each dose.
Statistical Analysis. The data points shown are the mean±standard error of the mean (SEM).

Series [1] concerns the target T1, 5-HT2A receptor (Homo sapiens, UniProt P28223). Put plainly: cell-based. It is filed as cell-based. The note with it: for Emax: read-out: 5-HT2A Arrestin % Act @ Max Dose. The essentials:
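Agonist activity expressed as percent of maximal control ligand signal after vehicle subtraction, from chemiluminescence (RLU). Cells carry ProLink-tagged 5-HT2A plus β-arrestin fused to β-gal deletion mutant; ligand-driven arrestin binding restores β-galactosidase activity (PathHunter). Cells pre-incubated at 37° C.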

The target in another series is T2, 5-HT2C receptor (Homo sapiens, UniProt P28335).
T2 sequence (P28335 33-458): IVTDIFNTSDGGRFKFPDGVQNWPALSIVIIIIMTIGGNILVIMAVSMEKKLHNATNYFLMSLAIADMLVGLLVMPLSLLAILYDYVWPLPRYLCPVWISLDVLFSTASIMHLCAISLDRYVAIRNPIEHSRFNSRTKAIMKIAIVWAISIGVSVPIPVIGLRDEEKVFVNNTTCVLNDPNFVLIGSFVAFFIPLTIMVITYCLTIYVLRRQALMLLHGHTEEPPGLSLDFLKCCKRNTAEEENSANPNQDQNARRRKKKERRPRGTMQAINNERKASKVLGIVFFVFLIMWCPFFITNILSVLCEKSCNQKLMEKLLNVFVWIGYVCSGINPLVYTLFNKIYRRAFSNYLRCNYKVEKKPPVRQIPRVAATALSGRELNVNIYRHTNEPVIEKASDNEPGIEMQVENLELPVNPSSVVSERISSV
Put plainly: cell-based. The note with it: for Emax: read-out: 5-HT2C % Act @ Max Dose.

Another series can be described thus: in vitro. The note with it: HLM 0.50 mg/mL, NADPH 1 mM, 1 μM compound, pH 7.4, 37° C., 60 min. It is filed as in vitro ADME, human.
In series [2] the target is T3, 5-HT2B receptor (Homo sapiens, UniProt P41595).
T3 construct: expressed in transfected cells; host or cells: HEK293, stably transfected
Put plainly: cell-based. The format is cell-based. The following applies: Ca2+ flux, HEK293, max dose; for Emax: HEK293, agonist, read-out: 5-HT2B % Act @ Max Dose. The essentials: (§1)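 FLIPR Tetra fluorescence read-out of calcium flux after compound addition. Receptor-expressing stable lines were used (HEK293 for 2A/2B; CHO with Gα15 for 1A), dye-loaded with Fluo-4 Direct and 2.5 mM final probenecid, 50 min at 37 °C.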
For orientation: Calcium assays in cells follow changes in intracellular calcium, usually with a dye or a luminescent sensor.

In the next series the target is T4, 5-HT1A receptor (Homo sapiens, UniProt P08908).
T4 construct: expressed in transfected cells; host or cells: CHO cells, stably transfected
T4 sequence (P08908 1-422): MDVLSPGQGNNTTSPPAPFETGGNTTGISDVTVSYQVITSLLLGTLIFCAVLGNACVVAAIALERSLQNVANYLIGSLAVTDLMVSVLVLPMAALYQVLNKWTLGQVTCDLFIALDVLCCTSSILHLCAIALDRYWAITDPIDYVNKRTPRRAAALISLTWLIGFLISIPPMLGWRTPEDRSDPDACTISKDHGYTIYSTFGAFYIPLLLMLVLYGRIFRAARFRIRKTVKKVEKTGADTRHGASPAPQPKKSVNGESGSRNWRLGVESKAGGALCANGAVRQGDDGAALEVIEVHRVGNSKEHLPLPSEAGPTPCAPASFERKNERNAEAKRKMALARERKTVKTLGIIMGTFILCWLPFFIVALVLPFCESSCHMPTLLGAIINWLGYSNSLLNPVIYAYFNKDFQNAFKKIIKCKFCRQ
Put plainly: cell-based. The following applies: agonist, Ca2+ flux; for Emax: CHO, read-out: 5-HT1A % Act @ Max Dose. The essentials: as §1

In series [3] the target is T3, 5-HT2B receptor. Briefly: 5-HT2B receptor radioligand binding ([3H]LSD).
For series [4], the target named is T1, 5-HT2A receptor. Put plainly: cell-based. The format is cell-based. Also on record: expressed in transfected cells; host or cells: HEK293, stably transfected. The note with it: HEK293, agonist, Ca2+ flux, HEK293, max dose; read-out: 5-HT2A % Act @ Max Dose. The essentials:
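Agonism measured as calcium flux on FLIPR Tetra. Receptor lines: HEK293 for 5-HT2A and 5-HT2B, CHO with Gα15 for 5-HT1A; dye loading with Fluo-4 Direct and probenecid (2.5 mM final) ran 50 min at 37 °C before compound addition and signal reading.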

For the next series, the target named is T5, 5-HT1B receptor (Homo sapiens, UniProt P28222).
T5 construct: expressed in transfected cells
Briefly: cAMP accumulation functional assay at 5-HT1B. The following applies: agonist, cAMP accumulation, max dose; read-out: 5-HT1B % Act @ Max Dose. The format is cell-based. The method, boiled down:
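Stably transfected human 5-HT1B cells were incubated 60 min at room temperature, after which detection reagent was applied for another 60 min at RT. The read-out was cAMP accumulation, used as a measure of agonist activity.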
For orientation: Cyclic AMP is a second messenger, typically raised through Gs and lowered through Gi signalling.

[5] abbreviates: agonist, beta-arrestin recruitment, max dose.
Where [6] appears, read: agonist, Ca2+ flux, Eurofins DiscoverX protocol, max dose.
Where [7] appears, read: agonist, beta-arrestin recruitment, PathHunter, read-out: 5-HT2A Arrestin EC50.
Where [8] appears, read: agonist, Ca2+ flux, Eurofins DiscoverX protocol, read-out: 5-HT2C EC50.

Like-named read-outs stand apart in the source and are kept apart here.

T1 sequence (P28223 whole entry, the tested form may be a part): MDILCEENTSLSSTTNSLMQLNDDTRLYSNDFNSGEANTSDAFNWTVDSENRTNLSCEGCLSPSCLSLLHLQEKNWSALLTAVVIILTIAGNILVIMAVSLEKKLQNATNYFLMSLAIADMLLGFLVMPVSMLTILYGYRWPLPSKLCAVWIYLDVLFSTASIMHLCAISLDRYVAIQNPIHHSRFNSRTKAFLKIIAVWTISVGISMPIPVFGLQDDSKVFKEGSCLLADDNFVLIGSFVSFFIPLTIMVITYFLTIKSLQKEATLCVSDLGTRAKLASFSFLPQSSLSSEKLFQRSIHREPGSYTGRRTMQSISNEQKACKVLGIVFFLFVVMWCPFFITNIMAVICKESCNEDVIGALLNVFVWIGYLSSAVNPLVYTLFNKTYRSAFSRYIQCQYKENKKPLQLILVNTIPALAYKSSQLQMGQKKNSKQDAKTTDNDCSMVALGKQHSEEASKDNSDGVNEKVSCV
T3 sequence (P41595 whole entry): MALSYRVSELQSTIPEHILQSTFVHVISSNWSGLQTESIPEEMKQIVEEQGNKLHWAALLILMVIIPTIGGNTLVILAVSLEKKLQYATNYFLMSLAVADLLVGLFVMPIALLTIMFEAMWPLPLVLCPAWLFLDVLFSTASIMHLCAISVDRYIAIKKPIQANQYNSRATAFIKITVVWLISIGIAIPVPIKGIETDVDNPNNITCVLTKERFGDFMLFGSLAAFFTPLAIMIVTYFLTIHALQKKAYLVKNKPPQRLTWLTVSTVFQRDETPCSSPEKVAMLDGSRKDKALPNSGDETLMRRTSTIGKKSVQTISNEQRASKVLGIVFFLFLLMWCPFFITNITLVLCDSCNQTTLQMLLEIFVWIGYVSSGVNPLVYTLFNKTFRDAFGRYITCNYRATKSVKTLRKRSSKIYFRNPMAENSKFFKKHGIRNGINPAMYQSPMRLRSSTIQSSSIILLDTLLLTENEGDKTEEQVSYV
T5 sequence (P28222 whole entry): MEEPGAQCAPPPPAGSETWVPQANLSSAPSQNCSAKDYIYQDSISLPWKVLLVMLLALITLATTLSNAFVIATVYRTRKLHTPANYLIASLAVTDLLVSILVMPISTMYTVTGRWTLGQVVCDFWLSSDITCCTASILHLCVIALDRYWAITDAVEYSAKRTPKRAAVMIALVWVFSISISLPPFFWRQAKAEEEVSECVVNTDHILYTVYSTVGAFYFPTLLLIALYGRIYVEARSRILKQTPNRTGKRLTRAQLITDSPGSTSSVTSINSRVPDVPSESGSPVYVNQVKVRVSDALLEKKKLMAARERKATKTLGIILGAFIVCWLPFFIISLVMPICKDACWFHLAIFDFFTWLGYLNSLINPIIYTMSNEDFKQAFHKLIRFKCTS

Consider `CCN(CC)C(=O)[C@@H]1C=C2c3cccc4[nH]c(Br)c(c34)C[C@H]2N(C)C1` [Compound 35, (6aR,9R)-5-bromo-N,N-diethyl-7-methyl-4,6,6a,7,8,9-hexahydroindolo[4,3-fg]quinoline-9-carboxamide], for which, in the series with C57BL/6 mice, the “# HTR/20 min at Most Efficacious Dose” value stood at 2.38 HTR/20 min; the “Most Efficacious Dose for Peak HTR/min” value was “(0.1) mg/kg, sc”; the “Most Efficacious Dose for # HTR/20 min” value is listed as “(0.1) mg/kg, sc”; the “Peak HTR/min at Most Efficacious Dose” value came to 0.56 HTR/min. Moreover, at 5-HT2A receptor [1], the EC50 came to 1.67 nM. In addition, at 5-HT2A receptor [1] (setting [5]), the “5-HT2A Arrestin % Act @ Max Dose” value was determined as 30.94%. The EC50 at 5-HT2C receptor was over 10000 nM. On 5-HT2C receptor (setting [6]), the “5-HT2C % Act @ Max Dose” value came out at 0%. Also, in the series “in vitro”, the “Intrinsic clearance (Clint)” value came to 57.4 µL/min/mg and the “half-life (t1/2)” value turned out to be 24.2 min. The “5-HT2B % Act @ Max Dose” value on 5-HT2B receptor [2] (agonist) was -0.13%. Further, the EC50 on 5-HT1A receptor (CHO cells with Gα15) is over 100000 nM. Besides, the “5-HT1A % Act @ Max Dose” value at 5-HT1A receptor (CHO cells with Gα15, max dose) was found to be 11.94%. Further, at 5-HT2B receptor [3], the affinity corresponds to a Ki of 4.96 nM.
In the case of `CCC(CC)NC(=O)[C@@H]1C=C2c3cccc4[nH]c(Br)c(c34)C[C@H]2N(C)C1` [Compound 44, (6aR,9R)-5-bromo-N-(pentan-3-yl)-7-methyl-4,6,6a,7,8,9-hexahydroindolo[4,3-fg]quinoline-9-carboxamide], in the series on C57BL/6 mice, the “# HTR/20 min at Most Efficacious Dose” value is reported as 4.38 HTR/20 min. In addition, the “Most Efficacious Dose for Peak HTR/min” value with C57BL/6 mice is “(3.2) mg/kg, sc”. In the series with C57BL/6 mice, the “Most Efficacious Dose for # HTR/20 min” value is reported as “(1) mg/kg, sc”. Also, the “Peak HTR/min at Most Efficacious Dose” value in the series on C57BL/6 mice stood at 0.93 HTR/min. Besides, the Emax at 5-HT2A receptor [4] amounted to 29.9%; at 5-HT2A receptor [1] (setting [5]), 40.7%; on 5-HT2C receptor (setting [6]) it was 40%; on 5-HT2B receptor [2], 15.7%; on 5-HT1A receptor (CHO cells with Gα15, max dose), 16.6%; on 5-HT1B receptor, 68.5%. For the same compound, the EC50 worked out at 1.71 nM on 5-HT2A receptor [1] (setting [7]) and 4930 nM at 5-HT2C receptor (setting [8]). The Ki at 5-HT2B receptor [3] (read-out: 5-HT2B Receptor Ki) stood at 9.3 nM.
Take `CC[C@@H](C)NC(=O)[C@@H]1C=C2c3cccc4[nH]c(Br)c(c34)C[C@H]2N(C)C1` [Compound 43, (6aR,9R)-5-bromo-N—((R)-sec-butyl)-7-methyl-4,6,6a,7,8,9-hexahydroindolo[4,3-fg]quinoline-9-carboxamide]: the “# HTR/20 min at Most Efficacious Dose” value in the series on C57BL/6 mice worked out at 6.5 HTR/20 min. In addition, the “Most Efficacious Dose for # HTR/20 min” value in the series with C57BL/6 mice is reported as “(0.1) mg/kg, sc”. For the same compound, the “Peak HTR/min at Most Efficacious Dose” value in the series on C57BL/6 mice amounted to 1 HTR/min. Further, the Emax was 39.3% at 5-HT2A receptor [4]; 51.8% at 5-HT2A receptor [1] (setting [5]); 3.13% at 5-HT2C receptor (setting [6]); 1% at 5-HT2B receptor [2]; 6.3% at 5-HT1A receptor (CHO cells with Gα15, max dose); 83.8% on 5-HT1B receptor. The EC50 was 2.23 nM on 5-HT2A receptor [1] (setting [7]) and over 10000 nM at 5-HT2C receptor (setting [8]). The Ki at 5-HT2B receptor [3] (read-out: 5-HT2B Receptor Ki) came out at 9.46 nM.

What is called EC50 is the concentration that produces a half-maximal response. The term Ki denotes the equilibrium dissociation constant of an inhibitor or competing ligand from its target.
